Consider two compounds from patent US5679828A (priority 1995, dated 1997).

Data set [1] has as its system HIV-induced membrane fusion. The experiment in a line: Inhibition of HIV-induced membrane fusion / syncytia formation reported in the literature. It is filed as cell-based. The following applies: versus compounds 2-5 or 8-10; CEM4 here, H9 in the literature.
The test system of data set [2] is HIV-1. The following applies: Table 1 footnote h: data from reference 8; cited from earlier work.
The test system of the next data set is HIV-1 RT. The following applies: Table 1 footnote h: data from reference 8; cited from earlier work.
Data set [3] deals with HIV-induced membrane fusion. The following applies: cited from earlier work.
The subject of data set [4] is HIV-1. The experiment in a line: HIV-1 replication in acutely infected H9 lymphocytes (p24 antigen ELISA). It is filed as cell-based, HIV-1 (IIIB isolate). On the procedure:
The cell lines were used in experiments only when in the logarithmic phase of growth, whereas uninfected peripheral blood mononuclear cells (PBMCs) were first stimulated with PHA (1 μg/mL) for three days. […] The cell lines and PBMCs were washed thoroughly to remove unadsorbed virions and resuspended at 4×10^5 cells/ml in complete medium or complete medium with 10% v/v interleukin 2 (IL-2), respectively. One ml. aliquots were placed into wells of 24-well culture plates containing an equal volume of test compounds (diluted in the appropriate culture medium). The toxicity of each compound was assessed by determining the number of compound-exposed uninfected cells that remained after four days at 37° C. and 5% CO2. A p24 antigen ELISA assay was used to determine the level of virus released in the medium of the HIV-infected cultures. The p24 antigen assay used a HIV-1 anti-p24 specific monoclonal antibody as the capture antibody coated onto 96-well plates. […] P24 in the culture medium was quantitated against a standard curve containing known amounts of p24. The effective (EC50) and inhibitory (IC50) concentrations for anti-HIV activity and cytotoxicity, respectively, were determined.
^a Concentration which inhibits viral replication in H9 cells by 50%

The subject of data set [5] is HIV-1. The experiment in a line: HIV-1 replication in PHA-stimulated PBMCs (p24 antigen ELISA). The following applies: for EC50: Human immunodeficiency virus 1, PBMC. It is filed as cell-based, HIV-1 (IIIB isolate). More on the design: TI50: unit not given beside the values. On the procedure:
The T cell line, H9, and the promonocytic cell line, U937, were maintained separately in continuous culture with complete medium (RPMI 1640 with 10% fetal calf serum) at 5% CO2 and 37° C. The cell lines were used in experiments only when in the logarithmic phase of growth, whereas uninfected peripheral blood mononuclear cells (PBMCs) were first stimulated with PHA (1 μg/mL) for three days. All cell targets were incubated with HIV-1 (IIIB isolate, TCID50 10^4 IU/ml, at a multiplicity of infection of 0.01-0.01 IU/cell) for one hour at 37° C. and 5% CO2. The cell lines and PBMCs were washed thoroughly to remove unadsorbed virions and resuspended at 4×10^5 cells/ml in complete medium or complete medium with 10% v/v interleukin 2 (IL-2), respectively. One ml. aliquots were placed into wells of 24-well culture plates containing an equal volume of test compounds (diluted in the appropriate culture medium). The toxicity of each compound was assessed by determining the number of compound-exposed uninfected cells that remained after four days at 37° C. and 5% CO2. A p24 antigen ELISA assay was used to determine the level of virus released in the medium of the HIV-infected cultures. The p24 antigen assay used a HIV-1 anti-p24 specific monoclonal antibody as the capture antibody coated onto 96-well plates. Following a sample incubation period, rabbit serum containing antibodies for HIV-1 p24 was used to tag any p24 "captured: onto the microtiter well surface. Peroxidase conjugated goat anti-rabbit serum was then used to tag HIV-1 p24 specific rabbit antibodies that had complexed with captured p24. […] The cutoff for the p24 ELISA assay was 12.5 pg/ml. P24 in the culture medium was quantitated against a standard curve containing known amounts of p24. The effective (EC50) and inhibitory (IC50) concentrations for anti-HIV activity and cytotoxicity, respectively, were determined.

The target of data set [6] is T1, HIV-1 reverse transcriptase (Human immunodeficiency virus type 1 group M subtype B, UniProt P04585).
T1 construct: virion associated HIV-1 IIIB reverse transcriptase; endogenous in cells; host or cells: HIV-1 IIIB virions lysed in Triton X-100
In words: HIV-1 reverse transcriptase assay. The conditions noted are these: Table 1; inhibit 50% of HIV-1 RT activity; read-out: HIV-RT Assay IC50. It counts as biochemical, HIV-1 IIIB. On the procedure: Ten microliters of virion associated HIV-1 IIIB reverse transcriptase in 1% Triton X-100 was mixed with 50 microliters of a reaction cocktail containing 50 mM Tri-HCl (pH 7.8), 75 mM KCl, 2 mM dithiothreitol, 5 mM MgCl2, 5 mg/ml poly (A) [Pharmacia], 0.25 unit/ml oligo(dT)[Pharmacia]; 0.05% Nonidet P40 and 10 mCi/ml ^32 P-dTTP in the presence of various concentrations of test compound. After incubating for one hour at 37° C., 40 microliters of the reaction mixture was applied to a Schleicher & Schuell NA 45 membrane saturated with […] (0.3M NaCl, 30 mM sodium citrate, pH 7.0) in a Schleicher & Schuell Minifold over one sheet of GB003 filter paper. Each well of the minifold was washed four times with 2×SSC. Autoradiography was performed, and radioactivity was quantified with a Packard Matrix (Meriden, Conn.) 9600 direct beta counter.

Data set [7] relates to HIV induced membrane fusion. In words: cells. It is filed as cell-based, HIV-1LAI. The following applies: Human immunodeficiency virus 1, CEM-4, 24 h, read-out: Fusion Assay IC100. The procedure:
MOLT-4 cells (7×10^4) were incubated with HIV-1LAI chronically infected CEM cells (10^4) in 96-well half-area flat-bottomed plates (Costar) in 100 microliters culture medium were incubated with the cell mixtures at 37° C. for 24 hours. Multinucleated syncytia were enumerated by microscopic examination of the entire contents of each well.

Data set [8] relates to cells of the fusion assay. In words: Cytotoxicity noted in the fusion assay. It is filed as cell-based. The conditions noted are these: Table 1 footnotes; one-day fusion assay. The procedure:
Cell fusions were performed as described in Matthews et al., Proc. Natl. Acad. Sci. USA, 1987, 84, 5424-5428. MOLT-4 cells (7×10^4) were incubated with HIV-1LAI chronically infected CEM cells (10^4) in 96-well half-area flat-bottomed plates (Costar) in 100 microliters culture medium were incubated with the cell mixtures at 37° C. for 24 hours. Multinucleated syncytia were enumerated by microscopic examination of the entire contents of each well.
^d No noticeable cytotoxicity at 100 μg/mL
^e Toxic to the cells at 80 μg/mL in oneday fusion assay
^f Toxic at 40 μg/mL under the assay conditions

Read-outs that look alike come from different tables or passages of the source.

Consider `C=C(C)[C@@H]1CC[C@]2(C(=O)NCCCCCCCC(=O)N[C@@H](CC(C)C)[C@@H](O)CC(=O)O)CC[C@]3(C)[C@H](CC[C@@H]4[C@@]5(C)CC[C@H](O)C(C)(C)[C@@H]5CC[C@]43C)[C@@H]12` [Compound 12], for which the “potency in inhibiting syncytia formation relative to compounds 2-5 or 8-10” value in [1] is listed as “approximately ten”. In the data set with HIV-1 [2], the EC50 is 30 nM and the T.I. is more than 90. The “HIV-RT Assay IC50” value in the data set on HIV-1 RT is recorded as “No Inhibition”. Besides, the “Fusion Assay IC100” value in data set [3] (Table 1 footnote h: data from reference 8) was 3 µg/mL. In addition, in data set [3] (reported in the literature, H9 cell line), the inhibit syncytia formation is 3 µg/mL.
Consider `CC(C)[C@@H]1CC[C@]2(C(=O)O)CC[C@]3(C)[C@H](CC[C@@H]4[C@@]5(C)CC[C@H](OC(=O)CC(C)(C)C(=O)O)C(C)(C)[C@@H]5CC[C@]43C)[C@@H]12` [Compound 8, 3-O-(3',3'-dimethylsuccinyl)-dihydrobetulinic acid], for which the concentration giving a half-maximal response (EC50) was less than 0.017 nM with HIV-1 [4] (Human immunodeficiency virus 1, Lymphocyte, acutely infected H9 lymphocytes); 1.75 ng/mL in the data set on HIV-1 [5]; 2.99 nM in the data set on HIV-1 [5] (PHA-stimulated PBMCs, read-out: EC50). Also, the T.I. was 14,000-98,000 with HIV-1 [4] (Table 1, H9 cells, therapeutic index) and “more than 400,000” in the data set on HIV-1 [4] (acutely infected H9 lymphocytes). In addition, in the data set with HIV-1 [5] (PBMCs versus H9 cells), the “T.I. values in PBMCs compared with H9 cells” value is reported as “lower than those in H9 cells”. Moreover, the TI50 in the data set with HIV-1 [5] (Table 2, PBMCs) is listed as 2,286. The IC50 in [6] is more than 170000 nM. Further, in [7], the IC100 was determined as 20 µg/mL. For the same compound, the “cytotoxicity in fusion assay (footnotes d, e, f)” value in data set [8] is listed as “f (Toxic at 40 μg/mL under the assay conditions)”.
